Key:
human Tcf7 promoter = conditions: HEK293FT with or without EGFP-C1-AR, 24 h, 500 ng/mL testosterone or 50 nM DHT
Method: Renilla and Red Firefly luciferase activity, the latter of which was regulated by a 1 kb long WT or mutant Tcf7 promoter sequence lacking putative AREs (FIG. 13A), were simultaneously measured in control or EGFP-C1-AR overexpressing HEK293FT post 24 h stimulation with 500 ng/mL testosterone (T) or 50 nM DHT.
Red Firefly luciferase activity, as regulated by a 1 kb long human WT or mutant Tcf7 promoter sequence lacking putative AREs, was measured in EGFP-C1-AR overexpressing HEK293FT cells post 24 h stimulation with 500 ng/mL testosterone or vehicle control.
WT or mutated human Tcf7 promoter sequence of one kb upstream from its transcriptional start site was cloned into the pMCS-Red Firefly Luciferase vector (Thermo Fisher). Mutants lacked individual (“Mut 1-4”) or all putative AR binding sites. Briefly, 40,000 HEK293FT cells were grown on a 96 well plate at 80% confluence. Cells were transfected with 200 ng of pEGFP-C1-human AR (a gift from Michael Mancini, Addgene plasmid #28235) and indicated Tcf7 luciferase reporter plasmids using Lipofectamine 2000 (Thermo Fisher) on Day 0 in triplicates. Renilla luciferase gene expression was used to ensure transfection efficiency (Thermo Fisher). […] Cells were then harvested and luciferase activity was analyzed by using Dual-Luciferase Reporter Assay System (Promega).

[1] = test system: AR-overexpressing Jurkat cells; conditions: 100 nM, re-stimulated Days 0, 3, 6, over 9 days
Method: Data are mean±SEM. Statistical significance was determined by Student's t test. **p≤0.01, ****p≤0.0001.
Empty vector and androgen receptor-expressing Jurkat cells were seeded into six well plates (Gibco) at 2×10^5 cells per well and treated with 100 nM testosterone (Sigma) or DHT (Millipore), alongside methanol vehicle control (Thermo Fisher). Every three days, cells were counted using the BioRad TC20 automated cell counter, passaged, and re-stimulated with the same androgen concentrations over a time course of 3, 6, and 9 days.

[2] = test system: MB49 mouse urothelial carcinoma cells; test: MB49 tumor growth in WT mice after daily oral enzalutamide; type: in vivo; conditions: male WT mice, enzalutamide 25 mg/kg daily oral gavage from Day 5, vs vehicle
From the text: FIGS. 5A, 5B, 5C, 5D, 5E, 5F, 5G, 5H, 5I, and 5J show T cell intrinsic AR signaling contributes to male bias in tumor growth and accumulation of CD8^+ progenitor exhausted T cells. MB49 growth and circulating free testosterone levels in (5A) Four Core Genotype or (5B) WT mice three weeks post sham or surgical castration (cast). […] LNCaP lysates were used as the positive AR control. Rep, replicate. […] For tumor growths, mean area (mm^2)±SEM are reported, with statistical significance determined using the repeated measures two-way ANOVA. n=6-11 mice per group.
MB49 (a gift from C. Voelkel-Johnson from the Medical University of South Carolina) and BKL171 mouse urothelial carcinoma cells were cultured in Dulbecco's modified Eagle's medium with 10% heat-inactivated fetal bovine serum and 1% penicillin/streptomycin. 5×10^5 tumor cells were resuspended in 100 μL ice cold PBS for subcutaneous injection into the right flank of a mouse. For antibody-mediated T cell depletion experiments, mice were injected intraperitoneally with 200 μg of anti-mouse CD4 (Clone GK1.5, BioXCell) and/or CD8 neutralizing antibodies (Clone 53-6.7, BioXCell), followed by 100 μg thereafter on the indicated days. […] Tumor surface area (width×length mm^2) was measured using an electronic caliper starting on Day 4 post implantation.

[3] = test system: CD8+ tumor-infiltrating lymphocytes (TILs) from female patients with bladder cancer; test: AR blockade of in vitro expanded CD8+ bladder cancer TILs, flow cytometry; type: cell-based, human; conditions: enzalutamide (50 uM in the presence of 10 nM DHT; varying doses), ex vivo expanded TILs
From the text: FIGS. 19A, 19B, 19C, 19D and 19E show androgen receptor blockade of in vitro expanded CD8+ bladder cancer TILs promotes effector differentiation and function. […] Statistical significance in FIGS. 19A-C determined by repeated measures ANOVA. P values were corrected for multiple hypothesis testing using the Dunnett method. Statistical significance in FIG. 19E determined by Student's paired t test. *P≤0.05.
In FIG. 19, we investigated the impact of androgen receptor (AR) blockade on in vitro expanded CD8^+ tumor-infiltrating lymphocytes (TILs) from female patients with bladder cancer, focusing on effector differentiation and function. Panel A (FIG. 19A) illustrates the effect of dihydrotestosterone (DHT) treatment on the CD8+GZMB^high population within ex vivo expanded TILs. […] Panel D (FIG. 19D) assesses IFNγ production in CD8+ TILs after PMA/ionomycin/golgi block stimulation with or without enzalutamide. Lastly, Panel E presents the median fluorescence intensity (MFI) of IFN-gamma within the CD8+GZMB^high population. Statistical significance in Panels A-C was determined by repeated measures ANOVA, with P values corrected for multiple hypothesis testing using the Dunnett method. In Panel E (FIG. 19E), statistical significance was determined by Student's paired t test (*P≤0.05).

Tcf7 = test: qPCR of naive CD8+ T cells stimulated with testosterone, type I IFN or both; type: cell-based, mouse
Method: See methods for details. […] Blue, Male; Pink, Female.
Mouse spleens and tumors were mechanically disrupted, with the latter additionally subjected to digestion with 1 mg/mL Collagenase D (Roche) for 30 min at 37° C. while shaken at 125 rpm. Excess volume of ice-cold PBS with 2% bovine serum albumin was used to inactivate the enzymatic activity. Red Blood Cell Lysis Buffer (BioLegend) was utilized on tissues before they were passed through 70 μm filters to prepare single cell suspensions. For cytokine production experiments, cells were re-stimulated by 50 ng/mL PMA (Sigma), 1 μg/mL Ionomycin (Sigma) and 1× Brefeldin A (BioLegend) in a 48-well plate for 2 hours at 37° C. For in vitro cultures, purified CD8^+ T cells were left untreated or stimulated with 50 ng/mL testosterone (Sigma) and/or 50 U/mL mouse IFN alpha A (PBL Assay Science). Cells were stained at 4° C. with eFluor506 fixable viability dye for 10 minutes (Invitrogen), followed by extracellular surface markers and FcR block concurrently for 30 minutes. […]
RNA was extracted from FACS/MACS-isolated CD8^+ T cells and reverse-transcribed using RNeasy Micro Kit (Qiagen) and SuperScript™ IV VILO™ Master Mix with ezDNase™ Enzyme (ThermoFisher Scientific), respectively. Quantitative PCR was performed with the following primers: […]

Compound	Tcf7 promoter activity (Red Firefly luciferase) (human Tcf7 promoter)	proliferation [1]	MB49 tumor growth [2]	effector differentiation and function of CD8+ TILs (GZMB high frequency, PD-1 high TOX high frequency, IFNγ) [3]	Ar expression (qPCR) (Tcf7; female CD8+ T cells, testosterone)	Tcf7 expression (qPCR) (Tcf7; male CD8+ T cells, acute testosterone exposure, 6 hours)
C[C@]12CCC(=O)C[C@@H]1CC[C@@H]1[C@@H]2CC[C@]2(C)[C@@H](O)CC[C@@H]12 [DHT, dihydrotestosterone]	stimulated Tcf7 promoter activity in an AR dependent manner	decreased proliferation				
CNC(=O)c1ccc(N2C(=S)N(c3ccc(C#N)c(C(F)(F)F)c3)C(=O)C2(C)C)cc1F [enzalutamide]			partial protection against tumor growth	promoting effector differentiation and function		
C[C@]12CC[C@H]3[C@@H](CCC4=CC(=O)CC[C@@]43C)[C@@H]1CC[C@@H]2O [testosterone]	stimulated Tcf7 promoter activity in an AR dependent manner	decreased proliferation			induction of Ar expression	significantly increased

— US20240382459A1, “MECHANISMS OF ANDROGEN RECEPTOR-CENTERED TRANSCRIPTIONAL NETWORKS IN REGULATING CD8+ T CELL EXHAUSTION AND THERAPEUTIC APPLICATIONS IN CANCER” (Ohio State Innovation Foundation, priority 2023, published 2024)
